Experimental findings from patent US10172921B2, “Method of treating an inflammatory bowel disease comprising agonists of orexin-1 receptor” (INSERM (INSTITUT NATIONAL DE LA SANTÉ ET DE LA RECHERCHE …, priority 2014, dated 2019) are described below.

The subject of one test is EXCY2 mice. In words: Spontaneous UC-like colitis in EXCY2 mice (IL10-/-; Nox1-/-): DAI, colon histology, stress pathways. To be noted: for DAI score: OxA 0.22 μmoles/kg intraperitoneal or 5-ASA 0.053 g/kg oral, scale 0 (no symptoms) to 4 (severe colitis), untreated mice 4, FIG. 7; for severe colitis: 10 week-old EXCY2 mice, 2 IP/week during 3 weeks. Format: in vivo. From the text:
FIG. 4: Histological aspect of colon mucosa in OxA treated mice (right) and non-treated mice (left)
FIG. 7: OXA better improves the DAI (weight and colitis score) of EXCY2 mice that the gold standard 5-aminosalicylic acid (5-ASA) treatment. Mice were intraperitoneal injected or not with OxA (0.22 μmoles/kg) or orally treated with 5-ASA (0.053 g/kg). DAI score including the weight loss, severity of diarrhea, the presence of blood in the stool, inflammation and edema was estimated using a scale ranging from 0 (no symptoms) to 4 (severe colitis).
DSS mouse model has been extensively used to decipher the mucosal inflammation in IBD, UC pathogenesis, and preclinical studies. However, mice show differential susceptibilities and responsiveness to DSS-induced colitis depending on their genetic background, gender. DSS model is a faithful model of inflammation but departs from Ulcerative Colitis in part for lack of the inflammation gradient from the rectum to the proximal colon usually observed in UC, any deregulation of ER stress in goblet cells known to be an early etiological factor of UC, and no digestive or extra-digestive complications of UC such as cholangitis and colorectal cancer, respectively. The use of genetically modified mice model represents a good alternative to chemically-induced colitis mice model. The recent development of a new spontaneous UC-like mouse model (EXCY2 mice, WO/2012/140516) consisting of a double KO of IL10 and Nox1 (IL10^−/−; Nox1^−/−) is ideally suited to study the OxA effect on spontaneous colitis. Indeed, EXCY2 mice 1) develop a spontaneous colitis at 6/7 weeks of age with an upwards gradient from the rectum and reproduce all molecular characteristics seen in UC including, loss of goblet cells, deregulation of ER stress, protective effect of tobacco; 2) spontaneously colonic cancer at 8 months of age (35-40% of mice); 3) develop mild cholangitis.
(§1) In contrast, the secretion of anti-inflammatory cytokine IL10 was unchanged (FIG. 6).
The treatment of EXCY2 mice with 5-ASA reduced the DAI score as compared to untreated mice, i.e. 3 vs 4, respectively.

Test [1] concerns cytokines secretion in colon extracts from DSS-treated mice. Kind of test: Cytokine secretion in colon extracts of DSS-induced colitis mice. The note with it: FIG. 3. Format: in vivo. The source says:
FIG. 3: OXA effects on cytokines secretion in DSS-induced colitis mice
(§2) These observations are confirmed by histologic aspect of colon epithelium (histologic scoring by a GI pathologist). Thus, OxA has probably an anti-inflammatory effect on DSS-induced colitis. To confirm this hypothesis, we have investigated the anti-inflammatory effect of OxA treatment on cytokines secretion in colon extracts from DSS-treated mice. […] In contrast, OxA has no effect on INFγ, IL10, and IL12 cytokine secretion in colon extracts (FIG. 3).

For test [2], the system named is cytokines secretion in EXCY2 mice. Kind of test: Cytokine secretion in colons of EXCY2 mice (Cytokine CBA kits). Format: in vivo. The note with it: OxA 0.22 μmoles/kg, FIG. 6. The method, then: FIG. 6: OXA effects on cytokines secretion in EXCY2 mice. Colons of EXCY2 mice from untreated mice (white) and treated with OxA (0.22 μmoles/kg) treatment (black) were resected after animal sacrifice. Then, protein extraction was performed by tissue disruption. Cytokines were determined using Cytokine CBA kits (see Material and Methods).
as §1

For the next test, the system named is DSS-induced colitis mice. Kind of test: DSS-induced colitis in mice: Disease Activity Index and colon histology. Format: in vivo.
Description: FIG. 2: OXA ameliorates the DAI (weight and colitis score) of DSS-induced colitis mice. Mice were orally treated with 5% DSS for 7 days.
FIG. 5: OXA ameliorates the DAI (weight and colitis score) of DSS-induced colitis mice. Mice were orally treated with 5% DSS for 7 days in the presence or in the absence of daily intraperitoneal injection of OxA (0.22 μmoles/kg). DAI score including weight loss, severity of diarrhea, the presence of blood in the stool, inflammation and edema was estimated using a scale ranging from 0 (no symptoms) to 4 (severe colitis). DSS, dextran sulfate sodium; WT, wild type mice.
Based on these observations, we have investigated the effect of Orexin A (OxA) on acute inflammation in mice treated with Dextran Sulfate Sodium (DSS). OxA was preferentially chosen in these experiments since the presence of two disulphide bridges confers it more stability. DSS induces acute colitis characterized by weight loss, bloody diarrhea, intestinal ulcerations and infiltrations with granulocytes.
as §2
As shown in FIG. 5 when DSS-induced colitis mice were treated with OxA, the DAI score was ameliorated (about of 1.5).

Another test has as its system Caco2 cells. Kind of test: Oxidative stress and ER stress pathways in Caco2 cells. Format: cell-based.
[3] abbreviates: colon extracts of DSS-induced colitis mice.
Where [4] appears, read: colon extracts of DSS-treated mice.

Regarding `Nc1ccc(O)c(C(=O)O)c1` [5-ASA, 5-aminosalicylic acid, reference compound], in the test on EXCY2 mice (EXCY2 mice), the DAI score came out at 3.

On to “Orexin-A (XPLPDCCRQKTCSCRLYELLHGAGNHAAGILTLX; not fully specified; two disulphide bridges; MOD_RES (1)..(1) PYRROLIDONE CARBOXYLIC ACID; (34)..(34) Xaa can be any naturally occurring amino acid; listed as Homo sapiens) [OxA]”, for which, in test [1] (setting [3]), the IL1B secretion entry was “reduces”, the IL6 secretion entry is “reduces”, the IL8 homolog secretion result is given as “reduces” and the TNFα secretion entry is “reduces”. Further, in test [1] (setting [4]), the IL10 cytokine secretion result is given as “no effect”, the IL12 cytokine secretion result is given as “no effect” and the INFγ cytokine secretion result was “no effect”. In test [2], the IFNγ secretion entry was “strong reduction”, the IL6 secretion result is on record as “strong reduction”, the IL10 secretion entry is listed as “unchanged” and the IL12 secretion result is listed as “strong reduction”. Besides, in test [2], the MCP1 secretion entry is given as “strong reduction” and the TNFα secretion entry is reported as “strong reduction”. Also, the severe colitis result with EXCY2 mice (0.22 μmoles/kg OxA) is “alleviated”. The severe colitis entry in the test on EXCY2 mice (1 μM OxA) is listed as “alleviated”. Moreover, in the test with EXCY2 mice (EXCY2 mice), the “deregulated pathways involved in the onset of colitis (oxidative stress and ER stress)” value is on record as “induced”; the DAI score turned out to be 1.5. In addition, the “colonic mucosa (general crypts aspect, crypt size, presence of goblet cells, absence of immune cells infiltration)” value with EXCY2 mice (OxA-treated vs vehicle treated EXCY2 mice, FIG. 4) is “normal colonic mucosa”. Further, in the test with DSS-induced colitis mice (5% DSS orally 7 days, daily intraperitoneal OxA 0.22 μmoles/kg, scale 0 (no symptoms) to 4 (severe colitis), FIG. 5, printed as 'ameliorated (about of 1.5)'), the DAI score is ~1.5. Besides, the “histologic aspect of colon epithelium” value in the test on DSS-induced colitis mice (DSS-treated mice, histologic scoring by a GI pathologist) is reported as “ameliorates”. Also, the “Disease Activity Index (DAI) scored by measuring weight, length of colon, diarrhea and the presence of blood in the stool” value in the test with DSS-induced colitis mice (orally DSS-treated mice (5% DSS for 7 days), FIG. 2) was “ameliorates”. Moreover, the “deregulated pathways involved in the onset of colitis (oxidative stress and ER stress)” value with Caco2 cells is reported as “induced”.
